Experimental data taken from patent US7053052B2, “Therapies involving mutated heat shock transcription factor” (priority 1997, dated 2006).

Legend:
[1] = test system: rodent cell lines; test: hsp overexpression in rodent cell lines; format: cell-based; conditions: several rodent cell lines
[2] = test system: HepG2 cells; test: Mortality from exposure to cyclophosphamide (LDH release, mortality); conditions: cyclophosphamide 20 mM
[3] = test system: HeLa-CAT cells; test: Recovery of translation after heat shock (3H-leucine pulse-labeling); format: cell-based, human; conditions: contribution of untransfected cells subtracted
Description: In a typical experiment, parallel HeLa-CAT cultures in 60 mm dishes (more than 70% confluent) were transfected with 0.75 ug of EGFP construct and 2.25 ug of HSF1(+) or HSF1(−) construct and 15 ul Lipofectamine™. Before exposing the cultures to heat shock about 36 hours post transfection, cells were replated (to achieve about 70% confluence). Note that in some experiments, HSF1(+) was delivered by infection with an adenoviral vector rather than by transfection. Cultures were exposed to a 42° C./1 hour heat shock and then returned to 37° C. Rates of protein synthesis before, during, and at different times after a subsequent, more severe heat shock were determined by pulse-labeling of cells with ^3H-leucine. For labeling, cultures were washed two times with prewarmed PBS, and one ml of labeling medium (leucine-free DMEM with 2% FBS and 65 uCi of ^3H-leucine (179 Ci/mmolc)) was added. […] Relative rates of protein synthesis were calculated as cpm/ug protein. […]
To find out whether HSF1(−) could function as a negatively acting factor, HeLa-CAT cells containing integrated copies of an hsp70B-chloramphenicol acetyltransferase (CAT) gene were co-transfected with an HSF1(−) and an EFGP-expressing construct. […] Rates of protein synthesis were assessed by pulse-labeling cells with ^3H-leucine. […]

Substance: human HSF1d202–316 [HSF1(+)]
- pattern of hsp overexpression [1]: hsp90 and, to a lesser extent, hsp25 were clearly overexpressed; the rate of hsp70 synthesis was only marginally enhanced
- reduction of mortality by LDH leakage assay [2]: 43%
- reduction of cyclophosphamide-caused mortality ([2]; 24 hour): 55%

Substance: human HSF1d453–523 [HSF1(−)]
- corrected rate of protein synthesis one hour after heat shock ([3]; first experiment): about 5%
- corrected rate of protein synthesis one hour after heat shock ([3]; second experiment): ~24%
